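Protocol summary: plate cells (96-well), add compound at 5 concentrations, incubate 48 h, interpolate endpoints linearly. Abbreviation: GI50, concentration required for 50% inhibition of growth. Definition used: TGI = concentration required for complete inhibition of growth.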
Tests used:
Assay in all cases: NCI-60 cell line screen, 48 h
786-0 renal = test system: 786-0 renal
A498 renal = test system: A498 renal
A549 NSCLC = test system: A549 NSCLC
ACHN renal = test system: ACHN renal
BT-549 breast = test system: BT-549 breast
CAKI-1 renal = test system: CAKI-1 renal
CCRF-CEM leukemia = test system: CCRF-CEM leukemia
COLO 205 colon = test system: COLO 205 colon
DU-145 prostate = test system: DU-145 prostate
EKVX NSCLC = test system: EKVX NSCLC
HCC-2998 colon = test system: HCC-2998 colon
HCT-116 colon = test system: HCT-116 colon
HCT-15 colon = test system: HCT-15 colon
HL-60(TB) leukemia = test system: HL-60(TB) leukemia
HOP-62 NSCLC = test system: HOP-62 NSCLC
HOP-92 NSCLC = test system: HOP-92 NSCLC
HS 578T breast = test system: HS 578T breast
IGROV1 ovarian = test system: IGROV1 ovarian
K-562 leukemia = test system: K-562 leukemia
KM12 colon = test system: KM12 colon
LOX IMVI melanoma = test system: LOX IMVI melanoma
M14 melanoma = test system: M14 melanoma
MALME-3M melanoma = test system: MALME-3M melanoma
MCF7 breast = test system: MCF7 breast
MDA-MB-231 breast = test system: MDA-MB-231 breast
MDA-MB-435 = test system: MDA-MB-435
MOLT-4 leukemia = test system: MOLT-4 leukemia
NCI-H226 lung = test system: NCI-H226 lung
NCI-H23 lung = test system: NCI-H23 lung
NCI-H460 lung = test system: NCI-H460 lung
NCI-H522 lung = test system: NCI-H522 lung
NCI/ADR-RES ovarian = test system: NCI/ADR-RES ovarian
OVCAR-3 ovarian = test system: OVCAR-3 ovarian
OVCAR-4 ovarian = test system: OVCAR-4 ovarian
OVCAR-5 ovarian = test system: OVCAR-5 ovarian
OVCAR-8 ovarian = test system: OVCAR-8 ovarian
PC-3 prostate = test system: PC-3 prostate
RPMI-8226 leukemia = test system: RPMI-8226 leukemia
SF-268 CNS = test system: SF-268 CNS
SF-295 CNS = test system: SF-295 CNS
SF-539 CNS = test system: SF-539 CNS
SK-MEL-2 melanoma = test system: SK-MEL-2 melanoma
SK-MEL-28 melanoma = test system: SK-MEL-28 melanoma
SK-OV-3 ovarian = test system: SK-OV-3 ovarian
SN12C renal = test system: SN12C renal
SNB-19 CNS = test system: SNB-19 CNS
SNB-75 CNS = test system: SNB-75 CNS
SR leukemia = test system: SR leukemia
SW-620 colon = test system: SW-620 colon
T-47D breast = test system: T-47D breast
TK-10 renal = test system: TK-10 renal
U251 CNS = test system: U251 CNS
UACC-257 melanoma = test system: UACC-257 melanoma
UACC-62 melanoma = test system: UACC-62 melanoma
UO-31 renal = test system: UO-31 renal
HT29 colon = test system: HT29 colon
SK-MEL-5 melanoma = test system: SK-MEL-5 melanoma

## O=C1c2ccccc2-c2c1c1ccc([N+](=O)[O-])cc1c(=O)n2CCCN1CCOCC1
786-0 renal
  GI50: 0.135 µM
  TGI: 2.32 µM
A498 renal
  GI50: > 38.8 µM
  TGI: > 92.4 µM
A549 NSCLC
  GI50: 9.37 µM
  TGI: > 100 µM
ACHN renal
  GI50: 0.128 µM
BT-549 breast
  GI50: 0.311 µM
  TGI: 16.7 µM
CAKI-1 renal
  GI50: 0.232 µM
  TGI: > 100 µM
CCRF-CEM leukemia
  GI50: 0.0224 µM
  TGI: 0.121 µM
COLO 205 colon
  GI50: 7.92 µM
  TGI: > 100 µM
DU-145 prostate
  GI50: 0.084 µM
  TGI: 3.09 µM
EKVX NSCLC
  GI50: 20.9 µM
  TGI: > 92.7 µM
HCC-2998 colon
  GI50: > 41 µM
  TGI: > 100 µM
HCT-116 colon
  GI50: 0.0851 µM
  TGI: 1.81 µM
HCT-15 colon
  GI50: 0.396 µM
  TGI: > 100 µM
HL-60(TB) leukemia
  GI50: 0.147 µM
  TGI: > 100 µM
HOP-62 NSCLC
  GI50: 0.0486 µM
  TGI: 0.346 µM
HOP-92 NSCLC
  TGI: > 41.1 µM
HS 578T breast
  GI50: 5.97 µM
  TGI: > 56.7 µM
IGROV1 ovarian
  GI50: 0.238 µM
  TGI: > 100 µM
K-562 leukemia
  GI50: 0.324 µM
  TGI: > 100 µM
KM12 colon
  GI50: 0.258 µM
  TGI: > 100 µM
LOX IMVI melanoma
  GI50: 0.0813 µM
  TGI: 0.338 µM
M14 melanoma
  GI50: 0.122 µM
  TGI: 0.495 µM
MALME-3M melanoma
  GI50: 0.268 µM
  TGI: 24.7 µM
MCF7 breast
  GI50: < 0.0166 µM
  TGI: > 100 µM
MDA-MB-231 breast
  GI50: 24.8 µM
  TGI: > 87.4 µM
MDA-MB-435
  GI50: 0.867 µM
  TGI: > 100 µM
MOLT-4 leukemia
  GI50: 0.0625 µM
  TGI: > 100 µM
NCI-H226 lung
  GI50: > 34.3 µM
  TGI: > 64.8 µM
NCI-H23 lung
  GI50: 0.16 µM
NCI-H460 lung
  GI50: 0.193 µM
  TGI: > 100 µM
NCI-H522 lung
  GI50: 0.424 µM
  TGI: > 100 µM
NCI/ADR-RES ovarian
  GI50: 0.293 µM
  TGI: 24.8 µM
OVCAR-3 ovarian
  GI50: 12.4 µM
  TGI: 29.9 µM
OVCAR-4 ovarian
  GI50: 0.776 µM
  TGI: > 48.3 µM
OVCAR-5 ovarian
  GI50: 13 µM
  TGI: > 100 µM
OVCAR-8 ovarian
  GI50: 0.32 µM
  TGI: > 100 µM
PC-3 prostate
  GI50: 0.291 µM
  TGI: > 100 µM
RPMI-8226 leukemia
  GI50: 0.138 µM
  TGI: 0.521 µM
SF-268 CNS
  GI50: 0.114 µM
  TGI: > 100 µM
SF-295 CNS
  GI50: 0.182 µM
  TGI: 31.8 µM
SF-539 CNS
  GI50: 0.119 µM
  TGI: 0.415 µM
SK-MEL-2 melanoma
  GI50: > 61.2 µM
  TGI: > 100 µM
SK-MEL-28 melanoma
  GI50: > 100 µM
  TGI: > 100 µM
SK-OV-3 ovarian
  GI50: 6.57 µM
  TGI: > 100 µM
SN12C renal
  GI50: 0.333 µM
  TGI: > 100 µM
SNB-19 CNS
  GI50: 0.378 µM
  TGI: > 52.6 µM
SNB-75 CNS
  GI50: 1.01 µM
  TGI: > 100 µM
SR leukemia
  GI50: 0.0139 µM
  TGI: > 100 µM
SW-620 colon
  GI50: 0.16 µM
  TGI: > 100 µM
T-47D breast
  GI50: 0.0971 µM
  TGI: > 100 µM
TK-10 renal
  GI50: 25.2 µM
  TGI: > 100 µM
U251 CNS
  GI50: 0.0923 µM
  TGI: 15.8 µM
UACC-257 melanoma
  GI50: 19.6 µM
  TGI: > 100 µM
UACC-62 melanoma
  GI50: 0.403 µM
  TGI: > 100 µM
UO-31 renal
  GI50: 0.195 µM
  TGI: > 100 µM

## O=C1CSC(c2cccc([N+](=O)[O-])c2)N1c1ccc(-c2ccc(-n3c(-c4ccccc4)nc4ccccc4c3=O)cc2)cc1 (stereo not drawn)
786-0 renal
  TGI: > 100 µM
A498 renal
  TGI: > 100 µM
A549 NSCLC
  TGI: > 100 µM
ACHN renal
  TGI: > 100 µM
BT-549 breast
  TGI: 98.3 µM
CAKI-1 renal
  TGI: > 100 µM
CCRF-CEM leukemia
  TGI: 91.9 µM
COLO 205 colon
  TGI: > 100 µM
DU-145 prostate
  TGI: > 100 µM
EKVX NSCLC
  TGI: > 100 µM
HCC-2998 colon
  TGI: > 100 µM
HCT-116 colon
  TGI: > 100 µM
HCT-15 colon
  TGI: > 100 µM
HL-60(TB) leukemia
  TGI: > 100 µM
HOP-62 NSCLC
  TGI: > 100 µM
HOP-92 NSCLC
  TGI: > 100 µM
HS 578T breast
  TGI: > 100 µM
HT29 colon
  TGI: > 100 µM
IGROV1 ovarian
  TGI: > 100 µM
K-562 leukemia
  TGI: > 100 µM
KM12 colon
  TGI: 81 µM
LOX IMVI melanoma
  TGI: > 100 µM
M14 melanoma
  TGI: > 100 µM
MALME-3M melanoma
  TGI: > 100 µM
MCF7 breast
  TGI: 92.6 µM
MDA-MB-231 breast
  TGI: > 100 µM
MDA-MB-435
  TGI: > 100 µM
MOLT-4 leukemia
  TGI: > 100 µM
NCI-H226 lung
  TGI: > 100 µM
NCI-H23 lung
  TGI: > 100 µM
NCI-H460 lung
  TGI: > 100 µM
NCI-H522 lung
  TGI: > 100 µM
NCI/ADR-RES ovarian
  TGI: > 100 µM
OVCAR-3 ovarian
  TGI: > 100 µM
OVCAR-4 ovarian
  TGI: > 100 µM
OVCAR-5 ovarian
  TGI: > 100 µM
OVCAR-8 ovarian
  TGI: > 100 µM
PC-3 prostate
  TGI: > 100 µM
RPMI-8226 leukemia
  TGI: > 100 µM
SF-268 CNS
  TGI: > 100 µM
SF-295 CNS
  TGI: > 100 µM
SF-539 CNS
  TGI: > 100 µM
SK-MEL-2 melanoma
  TGI: > 100 µM
SK-MEL-28 melanoma
  TGI: > 100 µM
SK-MEL-5 melanoma
  TGI: > 100 µM
SK-OV-3 ovarian
  TGI: > 100 µM
SN12C renal
  TGI: > 100 µM
SNB-19 CNS
  TGI: > 100 µM
SR leukemia
  TGI: > 100 µM
SW-620 colon
  TGI: > 100 µM
T-47D breast
  TGI: > 100 µM
TK-10 renal
  TGI: > 100 µM
U251 CNS
  TGI: > 100 µM
UACC-257 melanoma
  TGI: > 100 µM
UACC-62 melanoma
  TGI: > 100 µM
UO-31 renal
  TGI: > 100 µM

Source: PubChem BioAssay (NCI)
